ChEMBL document CHEMBL5212743, “Selectivity Literature for EUbOPEN Chemogenomics Library wave 3” (2023)

Columns and labels:
[1] = target: Glutamate receptor ionotropic, NMDA 1 (Homo sapiens, UniProt Q05586); experiment: Selectivity interaction (PRESTO-Tango GPCR-ome screening) EUB0000539a GRIN1
[2] = target: T1, Serine/threonine-protein kinase Sgk1 (Homo sapiens) (UniProt O00141); experiment: Selectivity interaction (KinomeScan (DiscoverX)) EUB0000303b SGK1; details: at 1 µM
T1 sequence (whole entry): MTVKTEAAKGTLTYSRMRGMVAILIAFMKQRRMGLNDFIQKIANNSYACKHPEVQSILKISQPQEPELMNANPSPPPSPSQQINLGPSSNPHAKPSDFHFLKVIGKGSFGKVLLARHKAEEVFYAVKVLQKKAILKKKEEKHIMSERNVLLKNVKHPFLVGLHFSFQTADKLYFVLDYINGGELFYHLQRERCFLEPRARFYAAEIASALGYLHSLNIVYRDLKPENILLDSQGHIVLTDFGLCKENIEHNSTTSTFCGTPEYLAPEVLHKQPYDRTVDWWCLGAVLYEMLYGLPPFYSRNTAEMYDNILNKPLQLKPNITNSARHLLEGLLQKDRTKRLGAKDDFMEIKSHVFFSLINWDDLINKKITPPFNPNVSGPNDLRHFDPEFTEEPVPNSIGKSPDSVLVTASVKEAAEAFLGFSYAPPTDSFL

[3] = target: T2, Serine/threonine-protein kinase LATS2 (Homo sapiens) (UniProt Q9NRM7); experiment: Selectivity interaction (KinomeScan (DiscoverX)) EUB0000303b LATS2; details: at 1 µM
T2 sequence (whole entry): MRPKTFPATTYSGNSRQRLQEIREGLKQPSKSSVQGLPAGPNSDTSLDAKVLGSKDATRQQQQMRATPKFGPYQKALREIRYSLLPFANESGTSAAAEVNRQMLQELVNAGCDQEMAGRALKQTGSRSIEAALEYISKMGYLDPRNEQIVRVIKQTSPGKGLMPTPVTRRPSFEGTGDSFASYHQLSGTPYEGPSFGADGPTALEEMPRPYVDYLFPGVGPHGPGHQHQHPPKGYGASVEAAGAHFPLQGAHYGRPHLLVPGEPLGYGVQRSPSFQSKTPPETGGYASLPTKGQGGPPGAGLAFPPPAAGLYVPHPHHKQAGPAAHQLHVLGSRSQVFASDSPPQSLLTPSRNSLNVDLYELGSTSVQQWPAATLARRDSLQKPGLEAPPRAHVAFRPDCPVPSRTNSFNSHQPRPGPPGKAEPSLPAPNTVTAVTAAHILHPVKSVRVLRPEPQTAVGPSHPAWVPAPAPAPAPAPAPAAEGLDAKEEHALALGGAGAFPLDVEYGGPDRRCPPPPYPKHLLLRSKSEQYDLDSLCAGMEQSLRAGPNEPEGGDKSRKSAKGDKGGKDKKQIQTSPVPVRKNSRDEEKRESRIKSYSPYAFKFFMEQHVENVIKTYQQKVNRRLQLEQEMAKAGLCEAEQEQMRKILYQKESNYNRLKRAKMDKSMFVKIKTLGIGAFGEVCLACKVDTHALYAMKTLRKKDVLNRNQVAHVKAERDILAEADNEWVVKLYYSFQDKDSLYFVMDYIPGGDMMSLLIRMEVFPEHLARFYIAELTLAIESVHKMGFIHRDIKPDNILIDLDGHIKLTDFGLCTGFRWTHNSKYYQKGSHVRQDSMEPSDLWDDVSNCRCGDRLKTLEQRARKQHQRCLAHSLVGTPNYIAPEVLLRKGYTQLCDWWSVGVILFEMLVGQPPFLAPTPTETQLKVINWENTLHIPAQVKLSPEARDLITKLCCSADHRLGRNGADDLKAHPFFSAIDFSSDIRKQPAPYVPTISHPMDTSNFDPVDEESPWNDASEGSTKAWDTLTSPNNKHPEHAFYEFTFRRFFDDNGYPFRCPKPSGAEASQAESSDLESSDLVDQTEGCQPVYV

[4] = target: T3, Gamma-aminobutyric acid receptor subunit alpha-1 (Homo sapiens, UniProt P14867); experiment: Selectivity interaction (GPCR panel (PDSP screen)) EUB0000303b GABRA1
T3 sequence (P14867 whole entry): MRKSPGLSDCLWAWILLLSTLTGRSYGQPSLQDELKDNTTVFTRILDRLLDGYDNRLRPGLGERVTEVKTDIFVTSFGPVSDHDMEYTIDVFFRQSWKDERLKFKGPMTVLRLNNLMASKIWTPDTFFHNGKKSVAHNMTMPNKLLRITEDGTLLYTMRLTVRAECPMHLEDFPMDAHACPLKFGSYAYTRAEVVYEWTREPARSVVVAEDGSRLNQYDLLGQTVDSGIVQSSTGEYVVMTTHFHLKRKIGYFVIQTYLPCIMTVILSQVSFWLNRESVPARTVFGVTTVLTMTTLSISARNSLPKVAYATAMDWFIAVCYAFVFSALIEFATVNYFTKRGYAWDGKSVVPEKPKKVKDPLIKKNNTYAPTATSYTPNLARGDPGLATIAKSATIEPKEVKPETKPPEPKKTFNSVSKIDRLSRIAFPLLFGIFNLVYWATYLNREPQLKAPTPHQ

[5] = target: Beta-adrenergic receptor kinase 1 (Homo sapiens) (UniProt P25098); experiment: Selectivity interaction (KinomeScan (DiscoverX)) EUB0000303b ADRBK1; details: at 1 µM
[6] = target: Ribosomal protein S6 kinase alpha-3 (Homo sapiens) (UniProt P51812); experiment: Selectivity interaction (KinomeScan (DiscoverX)) EUB0000303b RPS6KA3; details: at 1 µM
[7] = target: Voltage-gated inwardly rectifying potassium channel KCNH2 (Homo sapiens, UniProt Q12809); experiment: Selectivity interaction (Ricerca panel (GPCRs, ion channels, transporters, enzymes, and proteases)) EUB0000303b KCNH2; details: at 10 µM
[8] = target: T4, Ephrin type-B receptor 6 (Homo sapiens) (UniProt O15197); experiment: Selectivity interaction (KinomeScan (DiscoverX)) EUB0000303b EPHB6; details: at 1 µM
T4 sequence (whole entry): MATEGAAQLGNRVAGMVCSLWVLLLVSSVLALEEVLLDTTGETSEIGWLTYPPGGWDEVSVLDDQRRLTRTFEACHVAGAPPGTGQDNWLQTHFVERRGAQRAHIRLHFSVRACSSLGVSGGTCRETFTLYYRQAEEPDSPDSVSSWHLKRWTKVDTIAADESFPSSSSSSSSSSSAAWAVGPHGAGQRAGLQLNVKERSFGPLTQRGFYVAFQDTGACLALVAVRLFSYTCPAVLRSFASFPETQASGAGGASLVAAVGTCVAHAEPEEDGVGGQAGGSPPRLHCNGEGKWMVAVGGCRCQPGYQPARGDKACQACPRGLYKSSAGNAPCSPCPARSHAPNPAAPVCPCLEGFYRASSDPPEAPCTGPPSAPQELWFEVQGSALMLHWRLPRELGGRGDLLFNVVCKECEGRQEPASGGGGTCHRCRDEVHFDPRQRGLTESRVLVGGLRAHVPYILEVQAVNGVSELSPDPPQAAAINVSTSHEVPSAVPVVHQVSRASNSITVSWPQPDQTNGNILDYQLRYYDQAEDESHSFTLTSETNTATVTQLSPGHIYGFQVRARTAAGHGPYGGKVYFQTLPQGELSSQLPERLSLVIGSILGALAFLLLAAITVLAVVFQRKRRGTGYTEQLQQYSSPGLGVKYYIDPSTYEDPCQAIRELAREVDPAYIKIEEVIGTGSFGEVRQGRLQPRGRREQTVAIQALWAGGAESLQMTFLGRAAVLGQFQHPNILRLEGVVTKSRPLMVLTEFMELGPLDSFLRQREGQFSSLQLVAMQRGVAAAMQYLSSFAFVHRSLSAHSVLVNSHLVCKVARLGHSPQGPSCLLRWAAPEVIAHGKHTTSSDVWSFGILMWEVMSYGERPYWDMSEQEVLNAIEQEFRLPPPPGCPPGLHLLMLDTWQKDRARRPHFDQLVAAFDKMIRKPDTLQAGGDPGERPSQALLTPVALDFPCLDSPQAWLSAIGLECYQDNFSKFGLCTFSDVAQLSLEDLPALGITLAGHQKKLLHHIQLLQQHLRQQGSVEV

[9] = target: Serine/threonine-protein kinase WNK2 (Homo sapiens) (UniProt Q9Y3S1); experiment: Selectivity interaction (KinomeScan (DiscoverX)) EUB0000303b WNK2; details: at 1 µM
[10] = target: Sodium-dependent dopamine transporter (Homo sapiens, UniProt Q01959); experiment: Selectivity interaction (GPCR panel (PDSP screen)) EUB0000303b SLC6A3
[11] = target: T5, Sodium/nucleoside cotransporter 2 (Homo sapiens, UniProt O43868); experiment: Selectivity interaction (Enzyme panel (Eurofins-Panlabs enzyme assay)) EUB0000751a SLC28A2
T5 sequence (O43868 whole entry): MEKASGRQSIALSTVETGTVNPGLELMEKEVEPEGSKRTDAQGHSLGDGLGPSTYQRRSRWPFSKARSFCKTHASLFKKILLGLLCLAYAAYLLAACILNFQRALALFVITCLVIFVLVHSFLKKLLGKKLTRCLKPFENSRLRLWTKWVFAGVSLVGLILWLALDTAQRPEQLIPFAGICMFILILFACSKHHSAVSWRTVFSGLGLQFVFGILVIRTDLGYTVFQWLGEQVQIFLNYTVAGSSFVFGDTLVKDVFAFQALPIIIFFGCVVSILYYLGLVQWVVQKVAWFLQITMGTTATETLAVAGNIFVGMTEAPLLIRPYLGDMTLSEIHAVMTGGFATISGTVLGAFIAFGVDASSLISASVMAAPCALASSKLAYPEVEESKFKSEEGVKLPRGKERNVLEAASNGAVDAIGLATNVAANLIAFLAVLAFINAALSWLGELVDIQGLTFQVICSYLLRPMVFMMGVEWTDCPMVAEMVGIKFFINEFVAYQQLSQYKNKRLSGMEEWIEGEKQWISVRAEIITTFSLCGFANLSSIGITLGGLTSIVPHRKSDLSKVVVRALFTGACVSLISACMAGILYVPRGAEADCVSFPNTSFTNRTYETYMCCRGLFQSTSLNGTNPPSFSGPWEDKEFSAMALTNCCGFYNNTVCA

[12] = target: RAC-gamma serine/threonine-protein kinase (Homo sapiens) (UniProt Q9Y243); experiment: Selectivity interaction (KinomeScan (DiscoverX)) EUB0000751a AKT3; details: at 100 nM
[13] = target: T5, Sodium/nucleoside cotransporter 2; experiment: Selectivity interaction (Enzyme panel (Eurofins-Panlabs radioligand binding assays)) EUB0000751a SLC28A2
[14] = target: cGMP-inhibited 3',5'-cyclic phosphodiesterase 3A (Homo sapiens, UniProt Q14432); experiment: Selectivity interaction (PDE panel (enzymatic activity assay)) EUB0000751a PDE3A
[15] = target: High affinity 3',5'-cyclic-AMP phosphodiesterase 7A (Homo sapiens, UniProt Q13946); experiment: Selectivity interaction (PDE panel (enzymatic activity assay)) EUB0000751a PDE7A
[16] = target: T3, Gamma-aminobutyric acid receptor subunit alpha-1; experiment: Selectivity interaction (GPCR panel (PDSP screen)) EUB0000719a GABRA1
[17] = target: T3, Gamma-aminobutyric acid receptor subunit alpha-1; experiment: Selectivity interaction (GPCR panel (PDSP screen)) EUB0000720a GABRA1
[18] = target: 5-hydroxytryptamine receptor 2B (Homo sapiens, UniProt P41595); experiment: Selectivity interaction (Lead profiling screen (Eurofins-Panlabs)) EUB0000720a HTR2B; details: at 10 µM

Chain of Sodium-dependent dopamine transporter (Q01959 whole entry): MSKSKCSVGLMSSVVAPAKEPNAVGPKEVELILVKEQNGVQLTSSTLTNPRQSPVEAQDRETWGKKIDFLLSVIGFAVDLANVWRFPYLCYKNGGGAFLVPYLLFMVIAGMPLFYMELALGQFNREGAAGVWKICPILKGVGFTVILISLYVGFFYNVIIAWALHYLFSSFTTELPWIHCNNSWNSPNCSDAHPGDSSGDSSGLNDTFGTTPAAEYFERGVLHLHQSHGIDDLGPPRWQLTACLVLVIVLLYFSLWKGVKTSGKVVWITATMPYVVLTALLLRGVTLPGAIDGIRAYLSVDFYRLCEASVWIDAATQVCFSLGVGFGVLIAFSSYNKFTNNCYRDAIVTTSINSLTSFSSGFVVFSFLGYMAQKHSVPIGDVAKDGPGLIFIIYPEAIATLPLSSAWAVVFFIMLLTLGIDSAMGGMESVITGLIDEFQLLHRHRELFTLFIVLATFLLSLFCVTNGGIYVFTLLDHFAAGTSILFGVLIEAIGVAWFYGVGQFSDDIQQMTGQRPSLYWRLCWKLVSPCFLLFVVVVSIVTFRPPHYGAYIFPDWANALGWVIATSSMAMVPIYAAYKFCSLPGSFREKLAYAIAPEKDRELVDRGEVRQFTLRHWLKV
Chain of cGMP-inhibited 3',5'-cyclic phosphodiesterase 3A (Q14432 whole entry): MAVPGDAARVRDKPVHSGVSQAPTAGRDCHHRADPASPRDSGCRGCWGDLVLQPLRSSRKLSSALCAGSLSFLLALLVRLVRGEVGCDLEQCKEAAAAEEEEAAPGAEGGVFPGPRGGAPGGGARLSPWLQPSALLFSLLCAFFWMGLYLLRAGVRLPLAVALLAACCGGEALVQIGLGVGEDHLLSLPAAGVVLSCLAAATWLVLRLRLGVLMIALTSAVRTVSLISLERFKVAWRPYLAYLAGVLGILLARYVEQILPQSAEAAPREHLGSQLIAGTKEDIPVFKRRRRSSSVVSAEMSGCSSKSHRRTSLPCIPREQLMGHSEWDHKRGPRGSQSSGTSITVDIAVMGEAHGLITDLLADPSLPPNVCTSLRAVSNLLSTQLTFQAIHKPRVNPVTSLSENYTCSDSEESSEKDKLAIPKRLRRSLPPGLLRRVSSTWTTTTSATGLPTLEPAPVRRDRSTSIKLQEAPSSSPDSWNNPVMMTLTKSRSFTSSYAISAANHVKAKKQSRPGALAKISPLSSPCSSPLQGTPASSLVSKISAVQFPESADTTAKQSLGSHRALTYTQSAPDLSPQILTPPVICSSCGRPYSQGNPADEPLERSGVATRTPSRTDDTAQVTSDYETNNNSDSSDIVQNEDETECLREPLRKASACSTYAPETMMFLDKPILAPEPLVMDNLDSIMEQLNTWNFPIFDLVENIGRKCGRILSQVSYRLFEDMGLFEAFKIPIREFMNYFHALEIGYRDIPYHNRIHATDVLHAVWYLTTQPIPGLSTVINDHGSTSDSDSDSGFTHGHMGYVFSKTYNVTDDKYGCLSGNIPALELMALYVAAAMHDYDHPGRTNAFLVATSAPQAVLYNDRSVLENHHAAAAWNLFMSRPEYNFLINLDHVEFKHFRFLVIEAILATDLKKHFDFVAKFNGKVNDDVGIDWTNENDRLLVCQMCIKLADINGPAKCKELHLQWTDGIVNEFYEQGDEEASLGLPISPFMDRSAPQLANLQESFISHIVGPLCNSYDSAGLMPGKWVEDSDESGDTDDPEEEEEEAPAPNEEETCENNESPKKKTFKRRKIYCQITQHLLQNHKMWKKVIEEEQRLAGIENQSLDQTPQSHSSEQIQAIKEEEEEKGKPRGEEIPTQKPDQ
Chain of Ribosomal protein S6 kinase alpha-3 (Homo sapiens) (P51812 whole entry): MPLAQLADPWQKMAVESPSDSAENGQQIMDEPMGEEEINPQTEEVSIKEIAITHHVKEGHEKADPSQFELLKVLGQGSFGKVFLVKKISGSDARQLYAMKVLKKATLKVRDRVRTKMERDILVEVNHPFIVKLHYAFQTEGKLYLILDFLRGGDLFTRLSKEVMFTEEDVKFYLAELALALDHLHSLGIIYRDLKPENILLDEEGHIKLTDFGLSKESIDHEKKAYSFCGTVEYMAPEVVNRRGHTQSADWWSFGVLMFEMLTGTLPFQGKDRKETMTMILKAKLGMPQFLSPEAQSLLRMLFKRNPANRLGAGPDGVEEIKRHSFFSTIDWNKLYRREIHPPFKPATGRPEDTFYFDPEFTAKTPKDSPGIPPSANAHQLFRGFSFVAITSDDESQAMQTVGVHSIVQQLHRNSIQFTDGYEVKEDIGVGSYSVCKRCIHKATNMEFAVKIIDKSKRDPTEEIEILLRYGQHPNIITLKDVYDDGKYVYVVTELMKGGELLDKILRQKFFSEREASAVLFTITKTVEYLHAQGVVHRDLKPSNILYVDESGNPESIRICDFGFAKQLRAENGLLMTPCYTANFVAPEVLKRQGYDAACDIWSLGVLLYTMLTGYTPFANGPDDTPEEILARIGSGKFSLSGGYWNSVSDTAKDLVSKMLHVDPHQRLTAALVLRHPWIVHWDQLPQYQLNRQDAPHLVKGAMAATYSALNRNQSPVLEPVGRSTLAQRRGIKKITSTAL
Chain of Voltage-gated inwardly rectifying potassium channel KCNH2 (Q12809 whole entry): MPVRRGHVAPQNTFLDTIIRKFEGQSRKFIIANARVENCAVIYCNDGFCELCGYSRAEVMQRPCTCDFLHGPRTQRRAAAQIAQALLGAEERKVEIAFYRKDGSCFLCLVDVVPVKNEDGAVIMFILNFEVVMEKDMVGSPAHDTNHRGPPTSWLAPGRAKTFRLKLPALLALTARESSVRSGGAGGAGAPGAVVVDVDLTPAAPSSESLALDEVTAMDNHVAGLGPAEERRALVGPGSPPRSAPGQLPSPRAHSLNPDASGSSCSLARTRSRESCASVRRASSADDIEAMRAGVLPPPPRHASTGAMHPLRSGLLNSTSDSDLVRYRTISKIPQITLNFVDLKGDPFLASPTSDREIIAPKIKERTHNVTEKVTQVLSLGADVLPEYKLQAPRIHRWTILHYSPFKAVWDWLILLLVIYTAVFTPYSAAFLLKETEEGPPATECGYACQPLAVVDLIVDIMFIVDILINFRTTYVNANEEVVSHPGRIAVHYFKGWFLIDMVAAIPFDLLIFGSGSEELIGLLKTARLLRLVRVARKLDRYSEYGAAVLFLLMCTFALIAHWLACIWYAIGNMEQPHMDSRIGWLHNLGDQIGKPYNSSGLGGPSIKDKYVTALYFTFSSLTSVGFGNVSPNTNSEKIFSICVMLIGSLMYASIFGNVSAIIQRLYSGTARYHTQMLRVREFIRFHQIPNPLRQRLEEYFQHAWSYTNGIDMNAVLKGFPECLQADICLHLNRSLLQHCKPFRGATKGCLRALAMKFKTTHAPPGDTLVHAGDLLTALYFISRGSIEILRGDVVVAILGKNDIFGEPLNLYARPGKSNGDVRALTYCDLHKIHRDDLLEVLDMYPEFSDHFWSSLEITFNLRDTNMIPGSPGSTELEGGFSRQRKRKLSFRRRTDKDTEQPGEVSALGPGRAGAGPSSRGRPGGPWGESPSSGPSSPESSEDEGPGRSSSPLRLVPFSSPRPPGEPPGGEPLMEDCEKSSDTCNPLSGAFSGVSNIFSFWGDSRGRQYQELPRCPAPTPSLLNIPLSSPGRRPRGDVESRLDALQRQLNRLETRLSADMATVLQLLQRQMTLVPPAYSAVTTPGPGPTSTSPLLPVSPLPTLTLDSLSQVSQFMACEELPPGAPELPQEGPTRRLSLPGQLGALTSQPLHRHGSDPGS
Chain of RAC-gamma serine/threonine-protein kinase (Homo sapiens) (Q9Y243 whole entry): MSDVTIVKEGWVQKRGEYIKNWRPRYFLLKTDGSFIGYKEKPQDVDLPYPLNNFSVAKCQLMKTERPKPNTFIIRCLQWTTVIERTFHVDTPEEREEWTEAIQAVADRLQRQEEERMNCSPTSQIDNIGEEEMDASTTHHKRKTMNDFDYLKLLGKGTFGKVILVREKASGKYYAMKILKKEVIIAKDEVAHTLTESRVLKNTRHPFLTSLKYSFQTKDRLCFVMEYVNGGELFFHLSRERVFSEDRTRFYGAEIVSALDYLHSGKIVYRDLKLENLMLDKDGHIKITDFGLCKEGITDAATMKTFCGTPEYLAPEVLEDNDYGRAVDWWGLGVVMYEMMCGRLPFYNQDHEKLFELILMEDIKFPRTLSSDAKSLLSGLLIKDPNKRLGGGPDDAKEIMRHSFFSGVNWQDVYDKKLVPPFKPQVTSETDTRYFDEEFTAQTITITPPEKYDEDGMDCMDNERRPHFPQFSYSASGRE
Chain of Beta-adrenergic receptor kinase 1 (Homo sapiens) (P25098 whole entry): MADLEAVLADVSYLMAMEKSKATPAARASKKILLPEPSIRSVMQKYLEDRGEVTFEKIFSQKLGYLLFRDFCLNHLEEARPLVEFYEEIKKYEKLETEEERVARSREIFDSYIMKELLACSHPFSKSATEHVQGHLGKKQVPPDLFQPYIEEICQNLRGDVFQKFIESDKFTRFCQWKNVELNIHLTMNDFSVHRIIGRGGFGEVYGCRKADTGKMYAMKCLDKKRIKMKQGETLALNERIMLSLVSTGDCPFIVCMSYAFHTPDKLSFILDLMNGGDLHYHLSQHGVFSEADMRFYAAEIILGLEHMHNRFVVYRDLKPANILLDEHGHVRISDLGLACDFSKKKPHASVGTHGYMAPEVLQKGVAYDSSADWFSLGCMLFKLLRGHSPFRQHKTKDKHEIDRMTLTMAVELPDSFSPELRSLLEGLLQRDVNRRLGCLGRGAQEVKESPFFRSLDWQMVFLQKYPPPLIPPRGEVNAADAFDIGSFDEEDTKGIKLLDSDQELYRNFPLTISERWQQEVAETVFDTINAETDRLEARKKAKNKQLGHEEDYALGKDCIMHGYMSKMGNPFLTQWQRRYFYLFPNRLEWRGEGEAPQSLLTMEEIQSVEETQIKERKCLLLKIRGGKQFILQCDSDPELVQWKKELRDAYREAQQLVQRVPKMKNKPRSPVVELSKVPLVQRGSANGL

Structure (SMILES): Cc1ccc2nc(CNCCCOc3ccccc3)cc(O)c2c1 [UCSF924]
- Ki [1]: 1 µM

Structure (SMILES): Cc1nc(N2CC[C@H](O)C2)ncc1-c1cc(C(F)(F)F)cc2[nH]ncc12
- % of control [2]: 49%
- % of control [3]: 26%
- Ki [4]: 4.54 µM
- % of control [5]: 42%
- % of control [6]: 48%
- % of inhibition [7]: 1%
- % of control [8]: 36%
- % of control [9]: 41%
- Ki [10]: 1.68 µM

Structure (SMILES): COCCOc1nc(-c2ccc(Cl)nc2)nc2c1CN(C(=O)c1ncn3ccccc13)CC2 [THPP-1]
- IC50 [11]: 1.61 µM
- % of control [12]: 47%
- IC50 [13]: 1.61 µM
- Ki [14]: > 3300 µM
- Ki [15]: > 11.2 µM

Structure (SMILES): CN1C(=O)[C@@H](N2CCc3cn(Cc4ccccc4)nc3C2=O)COc2ccccc21 [TP-030-1]
- Ki [16]: 0.375 µM

Structure (SMILES): CN1C(=O)[C@@H](N2CCc3c(nn(Cc4ccccc4)c3Br)C2=O)COc2ccccc21 [TP-030-2]
- Ki [17]: 0.347 µM
- % of control [18]: 63%
